Laboratory results taken from PubChem BioAssay AID493003 (Sanford-Burnham Center for Chemical Genomics, 2010).
Calls of active or inactive are those of the source. The rule behind the calls is not given here.

Each molecule was assayed on S. cerevisiae tim10-1 mutant growth, luminescence (assay: growth inhibitors of tim10-1 mutant yeast, dose response, luminescence, S. cerevisiae, uHTS hits (AID 493003);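 note: yeast growth measured after about 22 hours at 25 °C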).

Row | SMILES | IC50
1 | CC(C)(C)C(=O)NCCN1C(=O)S/C(=C\c2ccc([N+](=O)[O-])cc2)C1=O | 32.3 µM
2 | COc1c(OC(C)=O)ccc(/C=C/c2ccc3ccccc3n2)c1[N+](=O)[O-] | 43.2 µM
3 | Cc1ccc(C(=O)O/N=C(\N)c2ccccn2)c(C)c1 | 17 µM
4 | Cc1ccc(NC(=S)NCc2ccc3[nH]c4c(c3c2)CCCC4)cc1 | 22.1 µM
5 | CCOC(=O)c1cnc2ccc(OC)cc2c1Nc1ccc2c(c1)OCCO2 | 79.3 µM
6 | CC/C(=N\Nc1ccccc1[N+](=O)[O-])c1ccc(O)cc1 | 20 µM
7 | COc1ccc2cc3cc(C(=O)NCCN4CCc5ccccc5C4)oc3nc2c1 | 0.69 µM
8 | CC(C)(C)c1ccc(-c2cc(-c3ccccc3O)[nH]n2)cc1 | 38.9 µM
9 | Clc1ccc(Nc2nc(C3CC3)cs2)cc1 | 39.8 µM
10 | O=C(C1CCN(C2CC(=O)N(c3cccc(Cl)c3)C2=O)CC1)N1CCCC1 (configuration not stated) | 18.2 µM
11 | CN(/N=C/c1ccc([N+](=O)[O-])o1)c1ccccc1 | 32.7 µM
12 | Cc1nc(SCC(=O)N2CCN(c3ccccc3)CC2)c2oc3ccccc3c2n1 | 40.7 µM
13 | COc1ccc(-c2cc(-c3ccc(Cl)cc3)n[nH]2)c(O)c1 | 27.1 µM
14 | CNC(=O)c1nnsc1S(=O)(=O)c1ccc(Cl)cc1 | 16.4 µM
15 | O=C(c1ccc2c3n(nc2c1)-c1ccccc1CO3)N1CCCCC1 | 13.4 µM
16 | CSc1ccc(S(=O)(=O)NCc2ccccc2Cl)cc1 | 22.4 µM
17 | C=CCNC(=S)NNc1nc2c(c(=O)[nH]1)C1(CCCC1)Cc1ccccc1-2 | 27.7 µM
18 | O=C(CSc1nc2cc(Cl)ccc2s1)c1ccco1 | 50.6 µM
19 | CC(C)(C)c1ccc(C(=O)CC(Sc2ccc(Cl)cc2)C(=O)O)cc1 (configuration not stated) | 27.6 µM

Row | SMILES | IC50
20 | Cc1ccc(NC(=S)Nc2ccc(Cl)c(Cl)c2)c(OC(F)F)c1 | 14 µM
21 | O=[N+]([O-])c1cc(Cl)ccc1N1CCN(c2ccccc2O)CC1 | 32.3 µM
22 | Cc1cc(N2C3CCC2CC(O)(c2ccc(F)cc2)C3)nc(-c2ccccc2)n1 (configuration not stated) | 25.4 µM
23 | C=CCc1cccc(CNc2nc3ccccc3n2C(C)C)c1O | 61.1 µM
24 | CCCOc1ccccc1NC(=O)/C=C/C(N)=O | 5.67 µM
25 | Cc1nc(CN2CCN(S(=O)(=O)c3c(Cl)cc(Br)cc3Cl)CC2)cs1 | 18.6 µM
26 | CCN1CCN(C(c2cccnc2)c2cc(Cl)c3cccnc3c2O)CC1 (configuration not stated) | 18 µM
27 | NNc1nc(-c2ccccc2)c2cc(Br)ccc2n1 | 10.1 µM
28 | N/C(=N\OC(=O)Cc1ccc([N+](=O)[O-])cc1)c1cccc(Br)c1 | 27.4 µM
29 | N/C(=N\OC(=O)CCCOc1ccccc1)c1cccc([N+](=O)[O-])c1 | 53.4 µM
30 | CSc1ccc(/C=C/C(=O)c2ccc(NC(=O)C(C)C)cc2)cc1 | 20.4 µM
31 | N#C/C(=C\c1ccccc1)C(=O)Nc1cc(S(=O)(=O)N2CCOCC2)ccc1N1CCCC1 | 31.3 µM
32 | S=c1[nH]nc(CSc2nc3ccccc3s2)n1C1CCCCC1 | > 100 µM (inactive)
33 | COc1ccc(/C=C/C(=O)c2ccccc2)cc1Cn1nnc2ccccc21 | 6.4 µM
34 | CC(C)(C)NC(=O)NC(=O)COC(=O)CCC1CCCCC1 | 69 µM
35 | CCCCNC(=S)Nc1ccc(C(F)(F)F)cc1 | 18.3 µM
36 | CC1(C)CC2CC(C)(CN2C(=S)NC(=O)c2ccccc2Cl)C1 (configuration not stated) | 59.9 µM
37 | CCc1nc(C)cn1S(=O)(=O)c1cc([N+](=O)[O-])ccc1Cl | 16.8 µM
38 | Cn1c(N2CCOCC2)nc(-c2ccccc2)c1-c1ccccc1 | 22.9 µM

Row | SMILES | IC50
39 | COc1ccc2[nH]c3c(=O)n4c(nc3c2c1)SCC4 | 79.9 µM
40 | O=C(/C=C/c1cccs1)c1cc(Br)ccc1OC(=O)N1CCOCC1 | 36.4 µM
41 | O=C(Nc1cccnc1)c1cn(-c2ccccc2)nc1-c1cccs1 | 13.2 µM
42 | CSc1ccccc1OCc1cc(C(=O)N2CCC(Oc3cccnc3)CC2)no1 | 39.9 µM
43 | Clc1ccccc1Nc1nnc(-c2ccncc2)s1 | 52.7 µM
44 | COc1ccc2oc(=O)c(-c3csc(Nc4cccc(O)c4)n3)cc2c1 | 21.9 µM
45 | COc1ccc(-c2csc(CCn3nc(C)cc3C)n2)cc1 | 30.1 µM
46 | N/C(=N\OC(=O)c1cccnc1)c1ccc(Cl)cc1Cl | 17.8 µM
47 | CN=C(Nc1cc(Cl)ccc1Cl)SC1CC(=O)N(c2ccc(C(=O)OC)cc2)C1=O (configuration not stated) | 12.6 µM
48 | CCCc1[nH]c2ccc(C#N)cc2c1CCC | 41.3 µM
49 | CNc1nc(-c2ccccn2)nnc1-c1ccccc1 | 29.8 µM
50 | Fc1ccccc1CNC(=S)Nc1cccc(C(F)(F)F)c1 | 10.5 µM
51 | N/C(=N\S(=O)(=O)c1cc(C(F)(F)F)cc(C(F)(F)F)c1)c1ccc(Cl)cc1 | 49.7 µM
52 | N#Cc1sc2nc(C3CC3)cc(-c3ccc(Cl)cc3)c2c1N | > 100 µM (inactive)
53 | O=C(ON=C1CCN(S(=O)(=O)c2ccccc2)CC1)c1ccc(F)cc1 | 26.4 µM
54 | CCC(=NCc1ccccc1)c1c(C(F)(F)F)[nH]n(-c2nc3ccccc3s2)c1=O | > 100 µM (inactive)
55 | Oc1ccc(-c2nccc(-c3ccc(F)cc3)n2)cc1 | 50.3 µM
56 | CC(Oc1ccc(Cl)cc1Cl)C(=O)NC1=NN(c2ccccc2)C(=O)C1 (configuration not stated) | 15.2 µM
57 | C=C(C)COc1ccc(-c2[nH]ncc2Oc2ccccc2OC)c(O)c1 | > 100 µM (inactive)
